The values that follow come from the supplement of paper PMC9013687.

The test system of assay [1] is Danio rerio embryo. The conditions noted are these: exposure time: 4 dpf. Here is the method: (§1)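 Zebrafish embryos (UFZ-OBI strain) were exposed from 2 hpf for 48 h (2 dpf) or 96 h (4 dpf) at 28 °C; spontaneous tail coiling was scored at 25 hpf. Morphological features from automated image analysis (FishInspector), heart rate and locomotor response were fitted with drc models. Quantal endpoints were dichotomised at 2.5 SD from controls and fitted with a log-logistic model; heart rate, pigmentation and STC were normalised to the replicate control mean. Betamethasone was tested as betamethasone dipropionate, diflorasone as diflorasone diacetate.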

Assay [2] deals with Danio rerio embryo. Here is the method:
as §1

Assay [3] concerns Danio rerio embryo. Description: EC50 Eye size_Decrease. Here is the method:
as §1

In assay [4] the test system is Danio rerio embryo. Description: EC10 Heart rate; higher = less potent. Here is the method: as §1
For assay [5], the system named is Danio rerio embryo. Description: EC10 Lack of SB; higher = less potent. The conditions noted are these: exposure time: 4 dpf. Here is the method: as §1
Assay [6] deals with Danio rerio embryo. Description: EC20 Lack of SB; higher = less potent. The conditions noted are these: exposure time: 4 dpf. Here is the method: as §1
For assay [7], the system named is Danio rerio embryo. As to the kind of experiment: EC20 Heart rate; higher = less potent. Here is the method:
as §1

Assay [8] concerns Danio rerio embryo. As to the kind of experiment: EC20 STC bell shape; higher = less potent. The conditions noted are these: exposure time: 25 h. Here is the method:
as §1

Assay [9] relates to Danio rerio embryo. As to the kind of experiment: EC10 STC bell shape; higher = less potent. The conditions noted are these: exposure time: 25 h. Here is the method: as §1
In assay [10] the test system is Danio rerio embryo. As to the kind of experiment: EC20 Eye size_Decrease; higher = less potent. Here is the method: as §1
The test system of assay [11] is Danio rerio embryo. As to the kind of experiment: EC10 Eye size_Decrease; higher = less potent. Here is the method: as §1
Assay [12] has as its system Danio rerio embryo. As to the kind of experiment: EC10 Pigmentation decrease; higher = less potent. Here is the method: as §1
In assay [13] the test system is Danio rerio embryo. As to the kind of experiment: EC20 Pigmentation decrease; higher = less potent. Here is the method:
as §1

Assay [14] has as its system Danio rerio embryo. The conditions noted are these: exposure time: 4 dpf. Here is the method:
as §1
The source holds these as a separate data set.

In assay [15] the test system is Danio rerio embryo. As to the kind of experiment: EC50 Head size_Decrease. The conditions noted are these: exposure time: 2 dpf. Here is the method:
as §1

Assay [16] concerns Danio rerio embryo. As to the kind of experiment: EC50 Head trunk angle_Decrease. The conditions noted are these: exposure time: 2 dpf. Here is the method: as §1
For assay [17], the system named is Danio rerio embryo. Description: EC50 Mandibular arch distance_Decrease. The conditions noted are these: exposure time: 4 dpf. Here is the method:
as §1

The subject of assay [18] is Danio rerio embryo. As to the kind of experiment: EC10 STC increase; higher = less potent. The conditions noted are these: exposure time: 25 h. Here is the method:
as §1

Assay [19] concerns Danio rerio embryo. Description: EC20 STC increase; higher = less potent. The conditions noted are these: exposure time: 25 h. Here is the method: as §1
In assay [20] the test system is Danio rerio embryo. As to the kind of experiment: EC10 LMR ligth decrease; higher = less potent. The conditions noted are these: exposure time: 4 dpf. Here is the method:
as §1

The subject of assay [21] is Danio rerio embryo. As to the kind of experiment: EC20 Head size_Decrease; higher = less potent. The conditions noted are these: exposure time: 2 dpf. Here is the method:
as §1

Assay [22] relates to Danio rerio embryo. As to the kind of experiment: EC20 LMR ligth decrease; higher = less potent. The conditions noted are these: exposure time: 4 dpf. Here is the method:
as §1

Assay [23] relates to Danio rerio embryo. Description: EC10 Head size_Decrease; higher = less potent. The conditions noted are these: exposure time: 2 dpf. Here is the method:
as §1

Assay [24] relates to Danio rerio embryo. As to the kind of experiment: EC10 Pigmentation increase; higher = less potent. The conditions noted are these: exposure time: 4 dpf. Here is the method:
as §1

Assay [25] concerns Danio rerio embryo. As to the kind of experiment: EC20 Pigmentation increase; higher = less potent. The conditions noted are these: exposure time: 4 dpf. Here is the method: as §1
Assay [26] has as its system Danio rerio embryo. Description: EC20 Head trunk angle_Decrease; higher = less potent. The conditions noted are these: exposure time: 2 dpf. Here is the method:
as §1

Assay [27] has as its system Danio rerio embryo. Description: EC20 Mandibular arch distance_Decrease; higher = less potent. The conditions noted are these: exposure time: 4 dpf. Here is the method: as §1
Assay [28] has as its system Danio rerio embryo. As to the kind of experiment: EC10 Mandibular arch distance_Decrease; higher = less potent. The conditions noted are these: exposure time: 4 dpf. Here is the method: as §1
Assay [29] relates to Danio rerio embryo. As to the kind of experiment: EC50 Head-trunk angle_Decrease. The conditions noted are these: exposure time: 2 dpf. Here is the method:
as §1

In assay [30] the test system is Danio rerio embryo. As to the kind of experiment: EC10 STC decrease; higher = less potent. The conditions noted are these: exposure time: 25 h. Here is the method:
as §1

Assay [31] has as its system Danio rerio embryo. As to the kind of experiment: EC20 STC decrease; higher = less potent. The conditions noted are these: exposure time: 25 h. Here is the method: as §1
In assay [32] the test system is Danio rerio embryo. Description: EC20 Head-trunk angle_Decrease; higher = less potent. The conditions noted are these: exposure time: 2 dpf. Here is the method: as §1

As to `Cc1ccc(-c2cc(C(F)(F)F)nn2-c2ccc(S(N)(=O)=O)cc2)cc1` [Celecoxib], in the assay with Danio rerio embryo [1], the “EC50 Lack of SB” value came out at 9.14 µM. Further, in the assay on Danio rerio embryo [2] (exposure time: 2 dpf), the “EC50 Pigmentation decrease” value turned out to be 34 µM. Further, the “EC50 Eye size Decrease” value in the assay on Danio rerio embryo [3] (exposure time: 4 dpf) was determined as 13.4 µM. In addition, the “EC10 Heart rate” value with Danio rerio embryo [4] (exposure time: 2 dpf) is 10.3 µM; in the assay on Danio rerio embryo [4] (exposure time: 4 dpf), 2.25 µM. For the same molecule, the “EC10 Lack of SB” value with Danio rerio embryo [5] was determined as 8.08 µM. Further, the “EC20 Lack of SB” value in the assay with Danio rerio embryo [6] is 8.45 µM. The “EC20 Heart rate” value in the assay with Danio rerio embryo [7] (exposure time: 2 dpf) was found to be 16.1 µM; in the assay with Danio rerio embryo [7] (exposure time: 4 dpf), 4.72 µM. In the assay with Danio rerio embryo [8], the “EC20 STC bell shape” value came to 23.8 µM. Moreover, in the assay on Danio rerio embryo [9], the “EC10 STC bell shape” value turned out to be 20.4 µM. The “EC20 Eye size Decrease” value in the assay with Danio rerio embryo [10] (exposure time: 4 dpf) is 10.5 µM. In addition, in the assay on Danio rerio embryo [11] (exposure time: 4 dpf), the “EC10 Eye size Decrease” value came out at 9.06 µM. For the same molecule, in the assay with Danio rerio embryo [12] (exposure time: 2 dpf), the “EC10 Pigmentation decrease” value was determined as 23.7 µM. For the same molecule, the “EC20 Pigmentation decrease” value in the assay on Danio rerio embryo [13] (exposure time: 2 dpf) was 27.1 µM.

For `CC(C)(C)C(O)/C(=C/c1ccc(Cl)cc1Cl)n1cncn1` (stereo not drawn) [Diniconazole], in the assay on Danio rerio embryo [14], the “EC50 Heart rate” value turned out to be 11.3 µM. The “EC50 Eye size Decrease” value in the assay on Danio rerio embryo [3] (exposure time: 2 dpf) amounted to 7.85 µM; with Danio rerio embryo [3] (exposure time: 4 dpf), 5.05 µM. In addition, the “EC50 Head size Decrease” value in the assay on Danio rerio embryo [15] amounted to 5.99 µM. In the assay with Danio rerio embryo [16], the “EC50 Head trunk angle Decrease” value is 4.5 µM. Moreover, the “EC10 Heart rate” value in the assay with Danio rerio embryo [4] (exposure time: 2 dpf) came to 4.6 µM; with Danio rerio embryo [4] (exposure time: 4 dpf), 5.23 µM. The results for the “EC20 Heart rate” value in the assay with Danio rerio embryo [7] (exposure time: 2 dpf) and with Danio rerio embryo [7] (exposure time: 4 dpf) were 6.61 µM and 7 µM, respectively. Besides, the “EC50 Mandibular arch distance Decrease” value in the assay with Danio rerio embryo [17] amounted to 6.4 µM. The “EC10 STC increase” value in the assay with Danio rerio embryo [18] was found to be 6.86 µM. Besides, the “EC20 STC increase” value in the assay with Danio rerio embryo [19] worked out at 7.82 µM. The “EC20 Eye size Decrease” value with Danio rerio embryo [10] (exposure time: 2 dpf) turned out to be 6.78 µM; in the assay with Danio rerio embryo [10] (exposure time: 4 dpf), 3.61 µM. Also, the “EC10 Eye size Decrease” value in the assay on Danio rerio embryo [11] (exposure time: 2 dpf) was 6.22 µM; with Danio rerio embryo [11] (exposure time: 4 dpf) it was 2.97 µM. Also, the “EC10 LMR ligth decrease” value in the assay with Danio rerio embryo [20] worked out at 0.478 µM. The “EC20 Head size Decrease” value in the assay with Danio rerio embryo [21] came out at 4.37 µM. Moreover, the “EC20 LMR ligth decrease” value with Danio rerio embryo [22] was 0.855 µM. In the assay on Danio rerio embryo [23], the “EC10 Head size Decrease” value amounted to 3.64 µM. Moreover, the “EC10 Pigmentation increase” value in the assay on Danio rerio embryo [24] was found to be 2.49 µM. The “EC10 Pigmentation decrease” value with Danio rerio embryo [12] (exposure time: 2 dpf) came to 6.17 µM. In the assay with Danio rerio embryo [13] (exposure time: 2 dpf), the “EC20 Pigmentation decrease” value was found to be 7.3 µM. In the assay with Danio rerio embryo [25], the “EC20 Pigmentation increase” value came out at 4.99 µM. For the same molecule, in the assay on Danio rerio embryo [26], the “EC20 Head trunk angle Decrease” value came to 3.2 µM. Moreover, the “EC20 Mandibular arch distance Decrease” value in the assay with Danio rerio embryo [27] was found to be 3.04 µM. The “EC10 Mandibular arch distance Decrease” value with Danio rerio embryo [28] was determined as 1.96 µM.

Take `C[Si](Cn1cncn1)(c1ccc(F)cc1)c1ccc(F)cc1` [Flusilazole]: the “EC50 Lack of SB” value with Danio rerio embryo [1] came to 2.78 µM. Further, the “EC50 Pigmentation decrease” value in the assay on Danio rerio embryo [2] (exposure time: 4 dpf) was determined as 22.2 µM. The “EC50 Eye size Decrease” value in the assay on Danio rerio embryo [3] (exposure time: 2 dpf) amounted to 22.3 µM; in the assay on Danio rerio embryo [3] (exposure time: 4 dpf), 5.51 µM. In addition, the “EC50 Head size Decrease” value with Danio rerio embryo [15] is 30.1 µM. Besides, the “EC50 Head-trunk angle Decrease” value with Danio rerio embryo [29] amounted to 11.8 µM. For the same molecule, the results for the “EC10 Heart rate” value with Danio rerio embryo [4] (exposure time: 2 dpf) and with Danio rerio embryo [4] (exposure time: 4 dpf) were 16 µM and 4.6 µM, respectively. Besides, the “EC10 Lack of SB” value in the assay with Danio rerio embryo [5] amounted to 1.64 µM. For the same molecule, the “EC20 Lack of SB” value with Danio rerio embryo [6] stood at 1.99 µM. In addition, the “EC20 Heart rate” value in the assay with Danio rerio embryo [7] (exposure time: 2 dpf) is 26.2 µM; with Danio rerio embryo [7] (exposure time: 4 dpf), 7.13 µM. For the same molecule, the “EC50 Mandibular arch distance Decrease” value with Danio rerio embryo [17] was found to be 11.4 µM. Moreover, the “EC10 STC decrease” value in the assay with Danio rerio embryo [30] stood at 2.72 µM. In the assay with Danio rerio embryo [31], the “EC20 STC decrease” value turned out to be 4.11 µM. The figures for the “EC20 Eye size Decrease” value in the assay on Danio rerio embryo [10] (exposure time: 2 dpf) and in the assay on Danio rerio embryo [10] (exposure time: 4 dpf) were 21.8 µM and 4.86 µM, respectively. Further, the “EC10 Eye size Decrease” value stood at 21.5 µM in the assay with Danio rerio embryo [11] (exposure time: 2 dpf) and 4.51 µM in the assay with Danio rerio embryo [11] (exposure time: 4 dpf). For the same molecule, the “EC20 Head size Decrease” value in the assay on Danio rerio embryo [21] was 28.8 µM. Also, the “EC10 Head size Decrease” value in the assay on Danio rerio embryo [23] was found to be 28.1 µM. Besides, the “EC10 Pigmentation decrease” value in the assay with Danio rerio embryo [12] (exposure time: 4 dpf) came to 3.38 µM. The “EC20 Pigmentation decrease” value with Danio rerio embryo [13] (exposure time: 4 dpf) was 7.16 µM. The “EC20 Head-trunk angle Decrease” value in the assay with Danio rerio embryo [32] came to 6.28 µM. Also, in the assay on Danio rerio embryo [27], the “EC20 Mandibular arch distance Decrease” value stood at 7.71 µM. Also, the “EC10 Mandibular arch distance Decrease” value in the assay on Danio rerio embryo [28] was 6.12 µM.
